Patent US20250268871A1, “NEW CRYSTAL FORM OF NITROGEN-CONTAINING TRICYCLIC COMPOUND AND USE THEREOF” (SUNSHINE LAKE PHARMA CO., LTD., priority 2021, published 2025)

Assays:
[1] = Stability experiment (high-temperature, high-humidity, photostability); format: physicochemical
Procedure: (§1) (1) High-temperature test: A batch of the test sample was taken and put into a flat weighing bottle, divided into ≤5 mm thick thin layer. The sample was placed at 60° C. for 30 days. The sample was then sampled at day 5, day 13 and day 30, and the change of the sample's color was observed. The purity of the sample was detected by HPLC.
(2) High-humidity test: A batch of the test sample was taken and put into a flat weighing bottle, divided into ≤5 mm thick thin layer. The sample was placed at 25° C. and RH for 90%±5% for 30 days. The sample wad sampled at day 5, day 13 and day 30, and the change of the sample's color was observed. The purity of the sample was detected by HPLC.
as §1, with “(3) Photostability” for “(1) High-temperature”, “taken” for “taken and put”, “placed in an opened light box (with UV)” for “placed”, “the illuminance 4500+5001x, UV light ≥0.7w/m2” for “60° C.”

[2] = Hygroscopicity experiment (dynamic vapor sorption); format: physicochemical; settings: relative humidity of 80%, criterion of hygroscopic weight gain
Procedure: The description of the hygroscopic characteristics and the definition of the hygroscopic weight gain (Appendix 9103 of Chinese Pharmacopoeia 2020 Edition, Guidelines for Drug Hygroscopicity Tests, experimental conditions: 25° C.±1° C., 80%+2% relative humidity) are described in the table below:
The hygroscopicity of the present invention is measured using the DVS INT-Std dynamic moisture and gas adsorption analyzer of the Surface Measurement Systems Company in UK. The humidity test range was 0%-95%, the air flow was 200 mL/min, the temperature was 25° C., test point: take one test point per […] 5% humidity.
An appropriate amount of the test sample was taken and the hygroscopicity of the test sample was tested by dynamic moisture adsorption device. It can be seen from FIG. 4 that the weight gain of the crystal form J according to the present invention is more than 0.2% but less than 2% after equilibrium under the condition of a relative humidity of 80%. […] Therefore, the crystal form J of the invention is not susceptible to deliquescent under the influence of high humidity, which is convenient for the long-term storage of the medicine.

[3] = Pharmacokinetic experiment, oral capsules in Beagle dogs; format: in vivo; settings: dog, plasma, male Beagle dogs, 5 mg/kg
Procedure: The crystal form of the compound having Formula (I) was filled into capsules, which were used for oral administration.
Three male Beagle dogs weighing 8-12 kg were orally administered with capsules containing the test sample at a dose of 5 mg/kg, and blood samples were taken at time points of 0.25 h, 0.5 h, 1.0 h, 2.0 h, 4.0 h, 6.0 h, 8.0 h and 24 h. Standard curve was plotted based on concentrations of the samples in a suitable range, the concentration of the test sample in the plasma sample was measured and quantified by AB SCIEX API4000 LC-MS/MS at MRM mode. Pharmacokinetic parameters were calculated according to drug concentration-time curve using a noncompartmental method by WinNonLin 6.3 software.

O=C(O)c1ccc2c(c1)Oc1ccc(OCc3c(-c4c(Cl)cccc4Cl)noc3C3CC3)nc1C1(CC1)C2 [crystal form J, 2-((5-cyclopropyl-3-(2,6-dichlorophenyl)isoxazol-4-yl)methoxy)-10H-spiro[benzo[6,7]oxepino[3,2-b]pyridine-11,1′-cyclopropane]-7-carboxylic acid]
change in appearance and chemical purity (HPLC) ([1]; 60° C., 25° C. and RH 90%±5%, light box with UV, 30 days, sampled at day 5, 13, 30): no obvious changes in the appearance and chemical purity
crystal structure stability ([1]; high temperature, high humidity and/or lighting conditions): remains basically unchanged
hygroscopic characteristics [2]: lightly hygroscopic
AUC(0-t) [3]: 885 ng·h/mL
Cmax [3]: 554 ng/mL
Tmax [3]: 40 min
